The record followed here is US9173864B2, “Treatment and/or prevention of inner ear conditions by modulation of a metabotropic glutamate receptor” (House Ear Institute, priority 2008, dated 2015).

This experiment relates to patients with symptoms of presbycusis. Put plainly: Administration of FTIDC to patients with presbycusis (Example 5). It counts as in vivo, human. To be noted: person; for hearing threshold, left ear / hearing threshold, right ear: after 14 days. As for the experimental part: A person presents with symptoms of presbycusis, including moderate loss of higher frequency (above 2000 Hz) hearing (50 decibel threshold) in both ears. The person is administered two drops per ear twice daily of a topical otic formulation comprising 10 ug/ml of FTIDC in a phosphate-buffered saline and further comprising 0.25% the carboxyvinyl water swellable gelling agent, Carbopol 934P; i.e., about […] of FTIDC per ear per dosing. After 14 days, the patient is tested by an audiologist. The threshold is lowered to 35 decibels right ear and 40 decibels left ear.
A person presents with symptoms of presbycusis, including loss of moderately high frequency (above 1000 Hz) hearing (40 decibel threshold right ear and 35 decibel threshold left ear). The person is administered an oral formulation 4 times per day comprising 2 ug per dose of FTIDC. The extended release capsule comprises a matrix of 10% by weight hydroxypropyl methylcellulose (e.g., Methocel®; Dow Chemical Company, U.S.A), and 50% by weight of a cornstarch filler. After 14 days, the threshold is lowered to 35 decibels right ear and 25 decibels left ear.
A person presents with symptoms of presbycusis, including loss of hearing in the 500 to above 2000 Hz range. The person is implanted with an Alset® osmotic pump adapted for cochlear delivery; see e.g., Richardson, R. T., Noushi, F., O'Leary, S. Inner ear therapy for neural preservation. AUDIOLOGY AND NEURO-OTOLOGY 2006; 11(6): 343-356. The pump is supplied with an aqueous sterile solution comprising FTIDC. The pump delivers a dose of 10 ug/hour of the modulator.

The mark [1] stands for this setting: higher frequency (above 2000 Hz) loss, 50 decibel threshold before, topical otic drops 10 ug/ml twice daily.

Molecules are shown by their SMILES.

As for `Cc1c(C2=CCN(C(=O)N(C)C(C)C)CC2)nnn1-c1cccnc1F` [FTIDC, 4-[1-(2-fluoropyridin-3-yl)-5-methyl-1H-1,2,3-triazol-4-yl]-N-isopropyl-N-methyl-3,6-dihydropyridine-1(2H)-carboxamide], the “hearing threshold, left ear” value came out at 25 decibels (above 1000 Hz loss, 35 decibel threshold before, oral extended release capsule 2 ug per dose 4 times per day) and 40 decibels under setting [1]. Besides, the “hearing threshold, right ear” value reads like this: (above 1000 Hz loss, 40 decibel threshold before, oral extended release capsule 2 ug per dose 4 times per day) 35 decibels; under setting [1], 35 decibels. Besides, the hearing result (loss in 500 to above 2000 Hz range, osmotic pump cochlear delivery 10 ug/hour, after 10 days) is on record as “hearing is improved in both ears”.
